Data published in patent EP0908457B1, “3-(1,2-benzisothiazol- and isoxazol-5-Y1)-2,4(1H,3H)-pyrimidinedione or thione and 3-(1,2-benzisothiazol- and isoxazol-5-y1)-4(3H)-pyrimidinone or thione herbicidal agents” (BASF AKTIENGESELLSCHAFT, priority 1997, dated 1999).

Legend:
[1] = system: Monochoria vaginalis, Presl.; assay: Preemergence weed control under flooded paddy conditions, MOOVA (Monochoria); type: in vivo; conditions: preemergence, flooded paddy, rated three to four weeks after treatment
[2] = system: Cyperus serotinus, Rottb.; assay: Preemergence weed control under flooded paddy conditions, CYPSE (Flatsedge); type: in vivo; conditions: preemergence, rated three to four weeks after treatment
[3] = system: Oryza sativa, (L.) Tebonnet; assay: Rice tolerance to post-transplant applications under flooded paddy conditions (Example 187), ORYSAT (Rice, Tebonnet); conditions: rated three to four weeks after treatment
[4] = system: Echinochloa oryzoides (Ard.) Fritsch.; assay: Preemergence weed control under flooded paddy conditions, ECHORC (Watergrass (Calif.)); type: in vivo; conditions: preemergence, flooded paddy, rated three to four weeks after treatment
Sagittaria pygmaea, L. = assay: Preemergence weed control under flooded paddy conditions, SAGPY (Arrowhead (Pygmaea)); type: in vivo; conditions: preemergence, flooded paddy, rated three to four weeks after treatment
Cyperus iria = assay: Preemergence weed control under flooded paddy conditions, CYPIR (Rice Flatsedge); type: in vivo; conditions: preemergence, flooded paddy, rated three to four weeks after treatment

SMILES | MOOVA herbicidal rating ([1]; 0.0320 kg/ha) | MOOVA herbicidal rating ([1]; 0.0620 kg/ha) | MOOVA herbicidal rating ([1]; 0.1250 kg/ha) | MOOVA herbicidal rating ([1]; 0.2500 kg/ha) | CYPSE herbicidal rating ([2]; 0.2500 kg/ha) | ORYSAT herbicidal rating (rice tolerance) ([3]; 0.0320 kg/ha) | ORYSAT herbicidal rating (rice tolerance) ([3]; 0.0620 kg/ha) | ORYSAT herbicidal rating (rice tolerance) ([3]; 0.1250 kg/ha) | ORYSAT herbicidal rating (rice tolerance) ([3]; 0.2500 kg/ha) | ECHORC herbicidal rating ([4]; 0.0320 kg/ha) | ECHORC herbicidal rating ([4]; 0.1250 kg/ha) | ECHORC herbicidal rating ([4]; 0.2500 kg/ha) | SAGPY herbicidal rating (Sagittaria pygmaea, L.; 0.0320 kg/ha) | SAGPY herbicidal rating (Sagittaria pygmaea, L.; 0.0620 kg/ha) | SAGPY herbicidal rating (Sagittaria pygmaea, L.; 0.1250 kg/ha) | SAGPY herbicidal rating (Sagittaria pygmaea, L.; 0.2500 kg/ha) | CYPIR herbicidal rating (Cyperus iria; 0.0320 kg/ha) | CYPIR herbicidal rating (Cyperus iria; 0.0620 kg/ha) | CYPIR herbicidal rating (Cyperus iria; 0.1250 kg/ha) | CYPIR herbicidal rating (Cyperus iria; 0.2500 kg/ha) | also measured
Cn1c(C(F)(F)F)cc(=O)n(-c2ccc3snc(COCOCc4ccccc4)c3c2)c1=O [Example 461, 2,4(1H,3H)-Pyrimidinedione, 3-{3-{[(benzyloxy)-methoxy]methyl}-1,2-benzisothiazol-5-yl}-1-methyl-6-(trifluoromethyl)-] | 7.0 | 7.0 | 9.0 | 9.0 | 7.0 | 5.0 | 5.0 | 5.0 | 6.0 | 9.0 | 9.0 | 9.0 | 2.0 | 3.0 | 4.0 | 6.0 | 6.0 | 9.0 | 9.0 | 9.0 | CYPSE herbicidal rating ([2]; 0.0320 kg/ha): 0.0; ECHORC herbicidal rating ([4]; 0.0620 kg/ha): 9.0
COc1ccc(C)cc1-c1nsc2cc(F)c(-n3c(=O)cc(C(F)(F)F)n(C)c3=O)cc12 [Example 462, 2,4(1H,3H)-Pyrimidinedione, 3-[6-fluoro-3-(6-methoxy-m-tolyl)-1,2-benzisothiazol-5-yl]-1-methyl-6-(trifluoromethyl)-] | 9.0 | 9.0 | 9.0 | 9.0 |  | 5.0 | 5.0 |  | 6.0 | 9.0 | 9.0 | 9.0 | 1.0 | 4.0 | 5.0 | 6.0 | 9.0 | 9.0 | 9.0 | 9.0 | CYPSE herbicidal rating ([2]; 0.0620 kg/ha): 3.0; ECHORC herbicidal rating ([4]; 0.0620 kg/ha): 9.0
Cc1ccc(CS(=O)(=O)NC(=O)c2nsc3ccc(-n4c(=O)cc(C(F)(F)F)n(C)c4=O)cc23)cc1 [Example 464, 1,2-Benzisothiazole-3-carboxamide, 5-[3,6-dihydro-3-methyl-2,6-dioxo-4-(trifluoromethyl)-1(2H)-pyrimidinyl]-N-[(p-methylbenzyl)sulfonyl]-] | 7.0 | 9.0 | 9.0 | 6.0 | 7.0 | 0.0 | 2.0 | 2.0 | 4.0 | 6.0 | 6.0 | 9.0 | 0.0 | 0.0 | 6.0 | 4.0 | 0.0 | 3.0 | 3.0 | 5.0 | CYPSE herbicidal rating ([2]; 0.0320 kg/ha): 0.0; CYPSE herbicidal rating ([2]; 0.0620 kg/ha): 0.0; CYPSE herbicidal rating ([2]; 0.1250 kg/ha): 0.0
Cc1ccccc1CS(=O)(=O)NC(=O)c1nsc2ccc(-n3c(=O)cc(C(F)(F)F)n(C)c3=O)cc12 [Example 465, 1,2-Benzisothiazole-3-carboxamide, 5-[3,6-dihydro-3-methyl-2,6-dioxo-4-(trifluoromethyl)-1(2H)-pyrimidinyl]-N-[(o-methylbenzyl)sulfonyl]-] | 2.0 | 3.0 | 6.0 | 9.0 | 9.0 | 2.0 | 3.0 | 4.0 | 5.0 | 6.0 | 7.0 | 9.0 | 2.0 | 5.0 | 5.0 | 6.0 | 0.0 | 0.0 | 3.0 | 8.0 | CYPSE herbicidal rating ([2]; 0.0320 kg/ha): 0.0; CYPSE herbicidal rating ([2]; 0.0620 kg/ha): 4.0; CYPSE herbicidal rating ([2]; 0.1250 kg/ha): 7.0; ECHORC herbicidal rating ([4]; 0.0620 kg/ha): 6.0
Cn1c(C(F)(F)F)cc(=O)n(-c2ccc3snc(C(C)(C)C(=O)O)c3c2)c1=O [Example 466, 1,2-Benzisothiazole-3-acetic acid, 5-[3,6-dihydro-3-methyl-2,6-dioxo-4-(trifluoromethyl)-1(2H)-pyrimidinyl]-alpha,alpha-dimethyl-] | 7.0 | 7.0 | 9.0 | 9.0 | 1.0 | 4.0 | 5.0 | 7.0 | 9.0 | 2.0 | 5.0 | 7.0 | 0.0 | 0.0 | 3.0 | 7.0 | 3.0 | 3.0 | 7.0 | 9.0 | ECHORC herbicidal rating ([4]; 0.0620 kg/ha): 4.0
Cn1c(C(F)(F)F)cc(=O)n(-c2ccc3snc(C(=O)NS(=O)(=O)Cc4ccc(Cl)cc4)c3c2)c1=O [Example 468, 1,2-Benzisothiazole-3-carboxamide, N-[(p-chlorobenzyl)sulfonyl]-5-[3,6-dihydro-3-methyl-2,6-dioxo-4-(trifluoromethyl)-1(2H)-pyrimidinyl]-] | 5.0 | 6.0 | 7.0 | 5.0 | 5.0 | 3.0 | 3.0 | 5.0 | 5.0 | 7.0 | 9.0 | 9.0 | 3.0 | 4.0 | 4.0 | 5.0 | 5.0 | 6.0 | 6.0 | 5.0 | CYPSE herbicidal rating ([2]; 0.0320 kg/ha): 2.0; CYPSE herbicidal rating ([2]; 0.0620 kg/ha): 6.0; CYPSE herbicidal rating ([2]; 0.1250 kg/ha): 7.0; ECHORC herbicidal rating ([4]; 0.0620 kg/ha): 7.0
Cn1c(C(F)(F)F)cc(=O)n(-c2ccc3snc(C(=O)NO)c3c2)c1=O [Example 471, 1,2-Benzisothiazole-3-carbohydroxamic acid, 5-[3,6-dihydro-3-methyl-2,6-dioxo-4-(trifluoromethyl)-1(2H)-pyrimidinyl]-] | 6.0 | 7.0 | 9.0 | 9.0 | 7.0 | 2.0 | 3.0 | 5.0 | 5.0 | 0.0 | 6.0 | 9.0 | 0.0 | 3.0 | 5.0 | 7.0 | 6.0 | 6.0 | 9.0 | 9.0 | CYPSE herbicidal rating ([2]; 0.0320 kg/ha): 3.0; ECHORC herbicidal rating ([4]; 0.0620 kg/ha): 3.0
Cn1c(C(F)(F)F)cc(=O)n(-c2ccc3snc(C(=O)NS(N)(=O)=O)c3c2)c1=O [Example 472, 1,2-Benzisothiazole-3-carboxamide, 5-[3,6-dihydro-3-methyl-2,6-dioxo-4-(trifluoromethyl)-1(2H)-pyrimidinyl]-N-sulfamoyl-] | 5.0 | 6.0 | 7.0 | 7.0 | 9.0 | 0.0 | 1.0 | 3.0 | 6.0 | 3.0 | 4.0 | 4.0 | 0.0 | 0.0 | 2.0 | 3.0 | 4.0 | 4.0 | 5.0 | 6.0 | CYPSE herbicidal rating ([2]; 0.0320 kg/ha): 0.0; CYPSE herbicidal rating ([2]; 0.1250 kg/ha): 6.0; ECHORC herbicidal rating ([4]; 0.0620 kg/ha): 3.0
